Experimental data: patent publication US10160744B2, “Quinoline compounds suitable for treating disorders that respond to the modulation of the serotonin 5-HT6 receptor” (Abbvie Deutschland GmbH & Co. KG, priority 2016, dated 2018)

How the values were obtained:
h-5-HT6 receptor = target: T1, h-5-HT6 receptor (Homo sapiens, UniProt P50406); assay: 5-HT6 receptor binding assay (displacement of [3H]-LSD); conditions: cloned human 5-HT6 receptor, HEK293 membranes, 1 nM [3H]-LSD
T1 construct: expressed in transfected cells
Method: Displacement of radioligands binding to the following cloned human receptors
1. Preparation of Membranes by Ultrasonic Treatment and Differential Centrifugation
Cells from stable clonal cell lines expressing the corresponding receptor (5-HT6, α1-adrenergic, dopamine D2 or histamine H1 receptors) were washed with PBS (w/o Ca^++, Mg^++) and harvested in PBS with 0.02% EDTA. The cells were collected by centrifugation at 500 g for 10 min. at 4° C., washed with PBS and centrifuged (500 g, 10 min. 4° C.). The pellets were stored at −80° C. until use. For membrane preparation, the thawed cell pellet was resuspended in ice-cold sucrose buffer (0.25 M sucrose, 10 mM Hepes (pH 7.4), 1 mM Phenylmethylsulfonyl fluoride (PMSF) in DMSO, 5 μg/ml Pepstatin-A, 3 mM EDTA, 0.025% Bacitracin) and homogenized with a Branson Sonifier W-250 (Settings: Timer 4; Output Control 3; Duty Cycle constant; 2 to 3 cycles). Cell disruption was checked with the aid of a microscope. Remaining unbroken cells were pelleted at 1.000 g for 10 min. at 4° C. The sucrose buffer supernatant was then centrifuged at 60.000 g for 1 h at 4° C. (Beckman Ultrazentrifuge XL 80). The pellet was resuspended in 30 ml ice-cold Tris buffer (20 mM TRIS (pH 7.4), 5 μg/ml Pepstatin A, 0.1 mM PMSF, 3 mM EDTA) by pipetting through a 10 ml serological pipet and centrifuged for 1 h at 4° C. at 60.000 g. A final resuspension was performed in a small volume of ice-cold Tris buffer (see above) by pressing through a serological pipet followed by ultrasonic treatment with a Branson Sonifier W-250 (Settings: Timer 1; Output Control 3; Duty Cycle constant; 1 cycle). Protein concentration was determined (BCA-Kit; Pierce) and aliquots stored at −80° C. or in liquid nitrogen for long-term storage.
2. Receptor Binding Experiments
All receptor binding experiments were carried out in the corresponding assay buffer in a total volume of 200 μl in the presence of various concentrations of test compound (10^−5 M to 10^−9 M, tenfold serial dilution, duplicate determinations). The assays were terminated by filtration on polyethylenimine (PEI 0.1% or 0.3%) presoaked Packard Unifilter Plates (GF/C or GF/B) with a Tomtec MachIII U 96 well-plate harvester. After the plates had been dried for 2 h at 55° C. in a drying chamber scintillation cocktail (BetaPlate Scint; PerkinElmer) was added. Radioactivity was measured in a Microbeta Trilux two hours after the addition of the scintillation mixture. Data derived from liquid scintillation counting were analysed by iterative non-linear regression analysis with the use of the Statistical Analysis System (SAS): a program similar to “LIGAND” as described by Munson and Rodbard (Analytical Biochemistry 107, 220-239 (1980).
a) 5-HT6 Receptor Binding Assay
HEK293 cells stably expressing the h-5-HT6 receptor (NCBI Reference Sequence XM 001435) were cultured in RPMI1640 medium supplemented with 25 mM HEPES, 10% fetal calf serum and 1-2 mM glutamine. The membrane preparation was performed as described in section 1. […] Non-specific binding was defined with 1 μM methiothepin. The binding reaction was carried out for 3.5 h at room temperature. During the incubation, the plates were shaken on a plate shaker at 100 rpm and terminated by filtration on Packard Unifilter GF/C (0.1% PEI) plates, followed by 2 wash cycles with ice-cold 50 mM Tris-HCl, 5 mM CaCl2.
Data derived from liquid scintillation counting were analyzed by iterative non-linear regression analysis with the use of the Statistical Analysis System (SAS): a program similar to “LIGAND” as described by Munson and Rodbard (Anal. Biochem. 1980, 107, 220-239). Fitting was performed according to formulae described by Feldman (Anal. Biochem. 1972, 48, 317-338). IC50, nH and Ki values were expressed as geometrical mean.

[1] = Metabolic stability in human liver microsomes (microsomal clearance); assay type: in vitro ADME; conditions: pH 7.4; human liver microsomes 0.25 mg protein/mL, 0.5 μM compound, NADPH, 37° C.; read-out: mClint
Method: Samples of the tested compounds (0.5 μM) were preincubated together with human liver microsomes (0.25 mg of microsomal protein/mL) in 0.05 M potassium phosphate buffer of pH 7.4 in microtiter plates at 37° C. for 5 minutes. The reaction was started by adding NADPH (1.0 mM). After 0, 5, 10, 15, 20 and 30 minutes, an aliquot was removed, the reaction was cooled and stopped by adding twice the amount of quench solution consisting of acetonitrile/methanol 1:1, and containing 0.2 μM carbutamide as internal standard. The samples were frozen until analyzed. The remaining concentration of undegraded test substance was determined by liquid chromatography-tandem mass spectrometry (LC-MS/MS). The half-life (t1/2) was determined from the gradient of the ratio of the signal of (test substance/internal standard)/unit time plot, allowing the calculation of the half-life of the test substance, assuming first order kinetics, from the decrease in the concentration of the compound with time. The microsomal clearance (mClint) was calculated as follows: mClint=((ln(2)/t 1/2)/Microsomal Protein Concentration (mg/ml))*1000, leading to the unit of μL/min/mg.

T1 sequence (P50406 whole entry): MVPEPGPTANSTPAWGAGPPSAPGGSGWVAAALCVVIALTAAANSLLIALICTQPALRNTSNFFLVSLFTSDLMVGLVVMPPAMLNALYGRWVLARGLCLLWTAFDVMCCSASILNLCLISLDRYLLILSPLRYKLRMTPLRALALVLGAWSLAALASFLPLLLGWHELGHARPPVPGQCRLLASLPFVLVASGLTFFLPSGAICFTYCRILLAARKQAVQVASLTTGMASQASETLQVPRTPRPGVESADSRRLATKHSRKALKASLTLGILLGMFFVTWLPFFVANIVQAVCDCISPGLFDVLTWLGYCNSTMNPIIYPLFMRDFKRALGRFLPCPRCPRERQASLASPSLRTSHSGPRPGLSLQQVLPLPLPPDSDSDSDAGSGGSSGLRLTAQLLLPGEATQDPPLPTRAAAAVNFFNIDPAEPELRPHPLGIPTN

Question: With `COc1cccc(S(=O)(=O)c2cnc3c(N4CCC(C(=O)O)CC4)cccc3c2)c1` [Example 15, 1-[3-(3-Methoxyphenyl)sulfonyl-8-quinolyl]piperidine-4-carboxylic Acid] as the molecule, how does the Ki (h-5-HT6 receptor) read?
Answer: 100 to 500 nM

Question: And the microsomal CLint at 0.5 μM [1]?
Answer: < 30 µL/min/mg

Question: What does the source list for `COc1ccccc1S(=O)(=O)c1cnc2c(N3CC(O)C3)cccc2c1` [Example 39, 1-[3-(2-Methoxyphenyl)sulfonyl-8-quinolyl]azetidin-3-ol]?
Answer: Ki (h-5-HT6 receptor): 10 to 100 nM; microsomal CLint at 0.5 μM [1]: 60 to 120 µL/min/mg

Question: With `O=C(O)C1CCN(c2cccc3cc(S(=O)(=O)c4cccc(OC(F)F)c4)cnc23)CC1` [Example 31, 1-[3-[3-(Difluoromethoxy)phenyl]sulfonyl-8-quinolyl]piperidine-4-carboxylic Acid] as the molecule, how does the Ki (h-5-HT6 receptor) read?
Answer: 10 to 100 nM

Question: What about the microsomal CLint at 0.5 μM [1] of the same molecule?
Answer: < 30 µL/min/mg

Question: With `O=S(=O)(c1cccc(C(F)(F)F)c1)c1cnc2c(N3CCC[C@@H](O)C3)cccc2c1` [Example 5, (R)-1-[3-(3-Trifluoromethyl-benzenesulfonyl)-quinolin-8-yl]-piperidin-3-ol] as the molecule, how does the Ki (h-5-HT6 receptor) read?
Answer: < 10 nM

Question: What about the microsomal CLint at 0.5 μM [1] of the same molecule?
Answer: 60 to 120 µL/min/mg

Question: For `O=S(=O)(c1ccccc1)c1cnc2c(N3CC[C@H](O)C3)cccc2c1` [Example 30, (3S)-1-[3-(Benzenesulfonyl)-8-quinolyl]pyrrolidin-3-ol], which Ki (h-5-HT6 receptor) is on record?
Answer: < 10 nM

Question: What about the microsomal CLint at 0.5 μM [1] of the same molecule?
Answer: 60 to 120 µL/min/mg

Question: With `O=S(=O)(c1cccc(N2CCC(O)CC2)c1)c1cnc2c(F)cccc2c1` [Example 24, 1-[3-[(8-Fluoro-3-quinolyl)sulfonyl]phenyl]piperidin-4-ol] as the molecule, how does the Ki (h-5-HT6 receptor) read?
Answer: 10 to 100 nM

Question: What about the microsomal CLint at 0.5 μM [1] of the same molecule?
Answer: 60 to 120 µL/min/mg

Question: With `O=S(=O)(c1cccc(C(F)(F)F)c1)c1cnc2c(N3CCC(O)C3)cccc2c1` (centres unmarked) [Example 2, 1-[3-(3-Trifluoromethyl-benzenesulfonyl)-quinolin-8-yl]-pyrrolidin-3-ol] as the molecule, how does the Ki (h-5-HT6 receptor) read?
Answer: < 10 nM

Question: And the microsomal CLint at 0.5 μM [1]?
Answer: 60 to 120 µL/min/mg

Question: What does the source list for `O=S(=O)(c1cccc(OC(F)F)c1)c1cnc2c(N3CCC(O)CC3)cccc2c1` [Example 29, 1-[3-[3-(Difluoromethoxy)phenyl]sulfonyl-8-quinolyl]piperidin-4-ol]?
Answer: Ki (h-5-HT6 receptor): < 10 nM; microsomal CLint at 0.5 μM [1]: < 30 µL/min/mg

Question: Which Ki (h-5-HT6 receptor) does the source give for `O=S(=O)(c1cccc(F)c1)c1cnc2c(N3CC(O)C3)cccc2c1` [Example 10, 1-[3-(3-Fluorophenyl)sulfonyl-8-quinolyl]azetidin-3-ol] here?
Answer: < 10 nM

Question: What about the microsomal CLint at 0.5 μM [1] of the same molecule?
Answer: 30 to 60 µL/min/mg

Question: For `O=S(=O)(c1cccc(C(F)(F)F)c1)c1cnc2c(N3CCC(O)CC3)cccc2c1` [Example 1, 1-[3-(3-Trifluoromethyl-benzenesulfonyl)-quinolin-8-yl]-piperidin-4-ol], which Ki (h-5-HT6 receptor) is on record?
Answer: < 10 nM

Question: And the microsomal CLint at 0.5 μM [1]?
Answer: 30 to 60 µL/min/mg

Question: For `O=C(O)C1CCCN(c2cccc3cc(S(=O)(=O)c4cccc(C(F)(F)F)c4)cnc23)C1` (centres unmarked) [Example 6, 1-[3-(3-Trifluoromethyl-benzenesulfonyl)-quinolin-8-yl]-piperidine-3-carboxylic Acid], which Ki (h-5-HT6 receptor) is on record?
Answer: 10 to 100 nM

Question: And the microsomal CLint at 0.5 μM [1]?
Answer: < 30 µL/min/mg

Question: Which Ki (h-5-HT6 receptor) does the source give for `O=C(O)C1CCN(c2cccc3cc(S(=O)(=O)c4ccccc4)cnc23)CC1` [Example 37, 1-[3-(Benzenesulfonyl)-8-quinolyl]piperidine-4-carboxylic Acid] here?
Answer: 10 to 100 nM

Question: And the microsomal CLint at 0.5 μM [1]?
Answer: < 30 µL/min/mg

Question: What does the source list for `COc1ccccc1S(=O)(=O)c1cnc2c(N3CCC(O)CC3)cccc2c1` [Example 21, 1-[3-(2-Methoxyphenyl)sulfonyl-8-quinolyl]piperidin-4-ol]?
Answer: Ki (h-5-HT6 receptor): 10 to 100 nM; microsomal CLint at 0.5 μM [1]: 60 to 120 µL/min/mg

Question: With `O=S(=O)(c1ccccc1)c1cnc2c(N3CCC(O)CC3)cccc2c1` [Example 18, 1-[3-(Benzenesulfonyl)-8-quinolyl]piperidin-4-ol] as the molecule, how does the Ki (h-5-HT6 receptor) read?
Answer: < 10 nM

Question: And the microsomal CLint at 0.5 μM [1]?
Answer: < 30 µL/min/mg

Question: Which Ki (h-5-HT6 receptor) does the source give for `COc1cccc(S(=O)(=O)c2cnc3c(N4CCC(O)CC4)cccc3c2)c1` [Example 13, 1-[3-(3-Methoxyphenyl)sulfonyl-8-quinolyl]piperidin-4-ol] here?
Answer: < 10 nM

Question: And the microsomal CLint at 0.5 μM [1]?
Answer: 60 to 120 µL/min/mg

Question: Which Ki (h-5-HT6 receptor) does the source give for `O=C(O)C1CCN(c2cccc3cc(S(=O)(=O)c4cccc(C(F)(F)F)c4)cnc23)CC1` [Example 3, 1-[3-(3-Trifluoromethyl-benzenesulfonyl)-quinolin-8-yl]-piperidine-4-carboxylic Acid] here?
Answer: < 10 nM

Question: What about the microsomal CLint at 0.5 μM [1] of the same molecule?
Answer: < 30 µL/min/mg
